The values that follow come from US20210174908A1, “CLASSIFICATION OF TUMOR MICROENVIRONMENTS” (Oncxerna Therapeutics, Inc., priority 2019, published 2021).

In one assay the test system is MDSC. The conditions noted are these: pre-clinical models; cited from earlier work.
Assay [1] deals with patients with gastric cancer. Put plainly: Retrospective population-based TME classification of gastric cancer patients who received pembrolizumab (n = 45), RECIST response. It is filed as in vivo, human. Particulars: for Class response rate: population-based classifier. The text has this: The analysis included 45 gastric cancer tumor samples.
The ORR for all patients was 27% (12/45). […] When the patients were retrospectively analyzed and placed in the Class IA, the response rate was 80%; and in Class IS, the response rate was 18%.

For the next assay, the system named is gastric cancer. Put plainly: ANN classifier applied to pembrolizumab monotherapy gastric cancer data, threshold / probability score optimization. It is filed as in vivo, human. The text has this:
Sensitivity refers to the number of true biomarker responders divided by number of actual responders; specificity refers to the number of true biomarker non-responders divided by number of actual non-responders; PPV refers to the number of true biomarker responders divided by number of total predicted biomarker responders (how well the biomarker-positive rating performs); and NPV—refers to the number of true biomarker non-responders divided by number of total predicted biomarker non-responders (how well the biomarker-negative rating performs).

Assay [2] deals with HER2 negative metastatic breast cancer, NSCLC, hepatocellular carcinoma. Particulars: with paclitaxel (HER2 negative metastatic breast cancer), paclitaxel-carboplatin (advanced NSCLC), sorafenib (hepatocellular carcinoma), docetaxel (non-squamous NSCLC); cited from earlier work.
Another assay has as its system solid tumors. The assay can be described thus: Navicixizumab Phase 1A dose-escalation trial, retrospective Z-score and ANN biomarker analysis (n = 39). Particulars: for Patients with benefit (SD or better): gynecological cancers. It is filed as in vivo, human. On the procedure: A retrospective data analysis of a Phase 1A dose-escalation trial for patients with solid tumors. […] Patients with the above cancers had biopsies collected. Exploratory predictive biomarkers such as DLL4 and VEGF were measured in FFPE tumor specimens, either archived or fresh core needle biopsied at study entry (2 FFPE cores were preferred whenever possible) by immunohistochemistry. […] In the biomarker-positive subset, 48% achieved SD or better.
Model performance is tabulated in TABLE 40; and abbreviations and definitions are as follows; ACC is accuracy; AUC ROC is area under the receiving operator characteristic curve; Sensitivity is the number of true biomarker responders divided by number of actual responders; Specificity is the number of true biomarker non-responders divided by number of actual non-responders; PPV is positive predictive value, i.e., number of true biomarker responders divided by number of total predicted biomarker responders; NPV is negative predictive value, i.e., number of true biomarker non-responders divided by number of total predicted biomarker non-responders.

For `CCCc1nn(C)c2c(=O)[nH]c(-c3cc(S(=O)(=O)N4CCN(C)CC4)ccc3OCC)nc12` [sildenafil], the “Effect on MDSC functions” value in the assay with MDSC is on record as “significantly inhibited the MDSC functions”.

On to Pembrolizumab, for which the “ORR (CR + PR) or class response rate” value in assay [1] (All (ORR), n = 45) is on record as 12/45 (27%); in assay [1] (class A), 0/8 (0%); in assay [1] (class IA), 8/10 (80%); in assay [1] (class ID), 2/16 (12%); in assay [1] (class IS) it was 2/11 (18%). Also, the CR in assay [1] (All, n = 45, patients/total) is given as 3/45; in assay [1] (class A, patients/class), 0/8; in assay [1] (class IA, patients/class), 2/10; in assay [1] (class ID, patients/class) it was 0/16; in assay [1] (class IS, patients/class), 1/11. Further, the PD is on record as 18/45 in assay [1] (All, n = 45, patients/total); 3/8 in assay [1] (class A, patients/class); 2/10 in assay [1] (class IA, patients/class); 7/16 in assay [1] (class ID, patients/class); 6/11 in assay [1] (class IS, patients/class). The PR is recorded as 9/45 in assay [1] (All, n = 45, patients/total); 0/8 in assay [1] (class A, patients/class); 6/10 in assay [1] (class IA, patients/class); 2/16 in assay [1] (class ID, patients/class); 1/11 in assay [1] (class IS, patients/class). Moreover, the Class response rate in assay [1] (Class A) came out at 0%; in assay [1] (Class IA, CR+PR in class / patients in class), 80%; in assay [1] (Class ID), 12%; in assay [1] (Class IS) it was 18%. For the same molecule, the “Overall Response Rate (ORR)” value in assay [1] (all patients, n = 45, CR+PR divided by total number of patients (RECIST)) is reported as 27%. In addition, the “Biomarker positive Overall Response Rate (ORR)” value in the assay with gastric cancer (Option 1: optimized threshold, both IS and IA groups (10/14)) was 70%; with gastric cancer (before threshold optimization), 80%. Moreover, in the assay with gastric cancer (Option 2: optimized threshold, only the IA subgroup (8/8)), the “Biomarker-positive ORR” value is given as 100%.

B1: Bavituximab (antibody, V domains shown)
VH: EVQLQQSGPELEKPGASVKLSCKASGYSFTGYNMNWVKQSHGKSLEWIGHIDPYYGDTSYNQKFRGKATLTVDKSSSTAYMQLKSLTSEDSAVYYCVKGGYYGHWYFDVWGAGTTVTVSS
VL: DIQMTQSPSSLSASLGERVSLTCRASQDIGSSLNWLQQGPDGTIKRLIYATSSLDSGVPKRFSGSRSGSDYSLTISSLESEDFVDYYCLQYVSSPPTFGAGTKLELK
notes: PS-targeting antibody
As for B1, in assay [2], the “Anti-tumor effects in clinical trials” value was “Promising anti-tumor effects”.

B2: Navicixizumab (antibody, chains of the INN, looked up, V domains shown)
VH: QVQLVQSGAEVKKPGASVKISCKASGYSFTAYYIHWVKQAPGQGLEWIGYISNYNRATNYNQKFKGRVTFTTDTSTSTAYMELRSLRSDDTAVYYCARDYDYDVGMDYWGQGTLVTVSS
VL: DIVMTQSPDSLAVSLGERATISCRASESVDNYGISFMKWFQQKPGQPPKLLIYAASNQGSGVPDRFSGSGSGTDFTLTISSLQAEDVAVYYCQQSKEVPWTFGGGTKVEIK
VH2: QVQLVQSGAEVKKPGASVKVSCKASGYTFTNYWMHWVRQAPGQGLEWMGDINPSNGRTSYKEKFKRRVTLSVDKSSSTAYMELSSLRSEDTAVYFCTIHYDDKYYPLMDYWGQGTLVTVSS
VL2: B2 VL
notes: anti-VEGF/anti-DLL4 bispecific antibody
In the case of B2, the “Patients achieving SD (Stable Disease) or better (RECIST 1.1)” value with solid tumors (all-comers biomarker subset, n = 39) is on record as 38%. Further, the “Patients achieving SD or better” value in the assay with solid tumors (biomarker-positive subset) was 48%. For the same molecule, the figures for the “Patients with benefit (SD or better)” value in the assay on solid tumors (biomarker-negative (n=6)) and with solid tumors (biomarker-positive (n=12)) were 0% and 58%, respectively.
